As usually defined, the IC50 is the concentration needed to halve the response being measured.

These results are taken from PMC12679848, “Sulphonamide derivatives with a triazine core as novel inducers of apoptosis and pyroptosis in glioblastoma multiforme cells” (Journal of Enzyme Inhibition and Medicinal Chemistry, 2025).

Where only a bound is given, the exact number is not on record here.

Series [1] can be described thus: Annexin V-FITC/PI apoptosis analysis, A172. It counts as cell-based, human. As to conditions: human, A172 cells, read-out: Viable cells; for viability at 24 h, 1.5 µM: A172, 1.5 μM; for viability at 24 h, 1 µM: A172, 1.0 μM. The procedure:
(§1) The level of apoptosis induction of the newly synthesised compounds MM118 and MM119 was determined using double staining with Annexin V-FITC and propidium iodide (AV/PI). This method enables the differentiation of four cell populations based on their state: viable cells, necrotic cells, cells in early apoptosis, and late apoptosis. The compounds were analysed on A172 and U-87 MG human glioblastoma multiforme cell lines using concentrations of 1 μM and 1.5 μM over a 24-h exposure period.
(§2) The impact of apoptosis induction by the tested compounds at concentrations of 1 μM and 1.5 μM, as well as by temozolomide at 1.5 μM, was evaluated through annexin V-FITC and propidium iodide (PI) staining with the Apoptosis Detection Kit II (BD Biosciences, San Diego, CA, USA). The glioblastoma cell lines A172 and U-87 MG were then deprived of medium and washed several times with cold phosphate-buffered saline (PBS) solution. The cell suspension was then prepared in the binding buffer provided in the kit at a concentration of 1 × 10^6 cells/mL. From each sample, 100 μL of the cell suspension was transferred to tubes and subsequently treated with 5 μL of Annexin V-FITC and 5 μL of propidium iodide (PI). The tubes were then incubated for 15 min at room temperature in the dark. Following the incubation period, 400 μL of binding buffer was added to each sample, after which the samples were immediately analysed using a BD FACSCanto II flow cytometer (Becton Dickinson Biosciences, San Jose, CA, USA), with 10,000 events recorded per sample. The results were then analysed using FACSDiva Software Version 6.1.3 (BD Biosciences Systems, San Jose, CA, USA).

Series [2] concerns U-87 MG. Put plainly: LDH release assay, U-87 MG. It counts as cell-based, human. As to conditions: 1.5 μM, 24 h. On the procedure: Analogous to the procedure described in the previous section, A172 and U-87 MG cells were cultured and plated in 96-well plates. The LDH-Cytotoxicity Assay Kit II (ab65393) (Abcam, Cambridge, UK) was used to assess cytotoxicity according to the manufacturer’s protocol. The test compounds MM118 and MM119 and the reference compound temozolomide (TMZ) were added to the cells at a concentration of 1.5 μM. After 24 h of exposure, the medium was collected, centrifuged and 10 μL of each sample was transferred to a new 96-well plate. In the next step, 100 μL of LDH Reaction Mix was added to each well and incubated for 30 min at room temperature. Absorbance was measured at 450 nm using an Absorbance 96 microplate reader (Byonoy GmbH, Hamburg, Germany). Cytotoxicity was calculated according to the formula provided by the manufacturer: Cytotoxicity (%) = ((Test Sample – Low Control)/(High Control – Low Control)) X 100, where Low Control - control without added compound, High Control with added 10 µL Lysis Buffer II.
In general terms: LDH leaks from cells whose membrane has failed.

The test system of the next series is A172. Briefly: MTT assay, A172. As to conditions: Homo sapiens, A 172; A172, 24 h of incubation; read-out: IC50 values ± SEM, MTT assay. The format is cell-based. On the procedure:
(§3) Human glioblastoma cell lines (A172 CRL-1620™, U-87 MG HTB-14™, U-118 MG HTB-15™, T98G CRL-1690™) and the mouse astrocyte cell line (C8-D1A CRL-2541™) were obtained from the American Type Culture Collection (ATCC, Manassas, VA, USA). The cell lines were cultured in complete medium: DMEM (Corning, Kennebunk, ME, USA) for C8-D1A and T98G, and EMEM (ATCC, Manassas, VA, USA) for A172, U-87 MG, U118MG. The media were supplemented with 10% foetal bovine serum (Eurx, Gdansk, Poland) and 1% penicillin-streptomycin solution (Corning, Kennebunk, ME, USA). Cells were cultured in cell culture flasks (Sarstedt, Numbrecht, Germany) at 37 °C in 5% CO2. For experiments, cells were washed with phosphate-buffered saline without calcium and magnesium (Corning, Kennebunk, ME, USA) and treated with 0.05% trypsin and 0.02% EDTA (Corning, Kennebunk, ME, USA). Cells were counted using a Sceptre 3.0 cell counter (Merck Millipore, Burlington, MA, USA) prior to seeding into plates. For 6-well plates, 5 x 10^5 cells/mL were seeded, while for 96-well plates (Sarstedt, Numbrecht, Germany), 1 x 10^5 cells/mL were seeded in 100 μL of the medium.
(§4) The cell lines were seeded in 96-well plates and cultured according to the methodology described in the previous section. Cells were then treated with the novel derivatives MM118 and MM119 and the reference compound temozolomide (TMZ) (Sigma-Aldrich, St. Louis, MO, USA) at concentrations of 0.1, 0.25, 0.5, 1.0, 2.5, 5.0, and 10.0 μM for 24 h. The MTT assay was performed using a solution of 3–(4,5-dimethyl-2-thiazolyl)-2,5-diphenyl-2H-tetrazolium bromide (Sigma-Aldrich, St. Louis, MO, USA) at a concentration of 5 mg/mL in phosphate-buffered saline without calcium and magnesium (Corning, Kennebunk, ME, USA). After 24 h incubation with test compounds, 10 μL MTT solution was added to each well, and cells were incubated for another 2 h at 37 °C. The cells were then lysed in 100 μL lysis buffer (25 mM HCl, 2% acetic acid, 3% DMF, and 5% SDS, adjusted to pH 4.7). Absorbance was measured at 570 nm using an Absorbance 96 microplate reader (Byonoy GmbH, Hamburg, Germany).
For orientation: Formazan colour is commonly taken as a measure of viable cells.

Another series concerns caspase 9. Put plainly: Caspase 9 activation (FAM FLICA), A172. It counts as cell-based, human. The settings on record: A172, 1.5 μM, 24 h. The procedure: The activity of caspase 1, caspase 3/7, caspase 8, and caspase 9 was evaluated through the utilisation of FAM FLICA Caspase Assays (ImmunoChemistry Technologies, Bloomington, MN, USA), in accordance with the established protocols. Following treatment with the compounds, the cells were collected at a concentration of 1 × 10^6 cells/mL, washed twice with cold PBS, and resuspended in 290 μL of PBS. The subsequent step involved the addition of 10 μL of 30X FLICA solution, followed by incubation at 37 °C in the absence of light for one hour. Then, 2 ml of Apoptosis Wash Buffer was added, and the samples were washed twice. A 300 μL aliquot of each sample was transferred to a BD FACSCanto II flow cytometer (Becton Dickinson Biosciences, San Jose, CA, USA), where 10,000 events per sample were recorded. The resulting data was then analysed using FACSDiva software, version 6.1.3 (BD Biosciences Systems, San Jose, CA, USA).

In the next series the test system is T98G. Briefly: MTT assay, T98G. The format is cell-based. As to conditions: Homo sapiens, 24 h of incubation, read-out: IC50 values ± SEM, MTT assay. On the procedure: as §3, §4
Series [3] is described as follows: Annexin V-FITC/PI apoptosis analysis, U-87 MG. The format is cell-based, human. As to conditions: human, U-87 MG cells, read-out: Viable cells. On the procedure: as §1, §2
The subject of series [4] is U-87 MG. Briefly: Annexin V-FITC/PI apoptosis analysis, U-87 MG. The format is cell-based, human. As to conditions: 1.5 μM, 24 h. The procedure: as §1, §2

With `Cn1nnc2c(C(N)=O)ncn2c1=O` [TMZ, temozolomide, reference compound], the viability at 24 h, 1.5 µM in series [1] was 89.75 ± 0.71%. Further, in the series with U-87 MG [2], the “LDH release, cytotoxicity” value is 1.18 ± 0.25%. Besides, in the series with A172, the IC50 is more than 10000 nM. Also, the “Active caspase 9 (cell population)” value in the series with caspase 9 is “no significant differences”. The IC50 in the series with T98G was more than 10000 nM. For the same compound, the viability at 24 h, 1.5 µM in series [3] stood at 93.4%. Further, in the series with U-87 MG [4], the Early apoptotic cells was determined as 3.40 ± 1.63%, the Late apoptotic cells amounted to 4.73 ± 0.64%, the Necrotic cells amounted to 0.25 ± 0.24% and the Viable cells was 91.65 ± 1.58%.

For `CCC(CO)NS(=O)(=O)c1ccc(-n2nc(C)c3nc4nnnn4nc32)cc1` (stereo in doubt) [MM118, N-(R)-(1-hydroxy-but-2-yl)-4-[7-methyl-5H-pyrazolo[4,3-e]tetrazolo[1,5-b][1]^,[2]^,[4]triazin-5-yl)]benzenesulfonamide], in series [1], the viability at 24 h, 1 µM came to 88.2% and the viability at 24 h, 1.5 µM came to 65.5 ± 5.06%. The “LDH release, cytotoxicity” value with U-87 MG [2] stood at 24.27 ± 2.74%. Moreover, in the series with A172, the IC50 stood at 889 ± 243 nM. For the same compound, the “Active caspase 9 (cell population)” value in the series on caspase 9 is 31.55 ± 8.07%. Moreover, in the series with T98G, the IC50 was found to be 2440 ± 393 nM. In addition, in series [3], the viability at 24 h, 1 µM was determined as 76.2% and the viability at 24 h, 1.5 µM is 48.8 ± 3.9%. In the series with U-87 MG [4], this compound showed an Early apoptotic cells of 10.28 ± 4.08%, a Late apoptotic cells of 38.73 ± 4.09% and a Necrotic cells of 2.30 ± 1.81%.

Turning to `CCC(CO)NS(=O)(=O)c1ccc(-n2nc(C)c3nc4nnnn4nc32)cc1` (stereo in doubt) [MM119, N-(S)-(1-hydroxy-but-2-yl)-4-[7-methyl-5H-pyrazolo[4,3-e]tetrazolo[1,5-b][1]^,[2]^,[4]triazin-5-yl)]benzenesulfonamide], in series [1], the viability at 24 h, 1 µM turned out to be 90.7% and the viability at 24 h, 1.5 µM was 74.8 ± 1.84%. In the series with U-87 MG [2], the “LDH release, cytotoxicity” value came to 28.02 ± 5.27%. For the same compound, the IC50 in the series on A172 is 1240 ± 386 nM. In addition, the “Active caspase 9 (cell population)” value in the series with caspase 9 is given as 25.50 ± 6.04%. Moreover, the IC50 in the series on T98G worked out at 4410 ± 1190 nM. Besides, in series [3], the viability at 24 h, 1 µM worked out at 85.4% and the viability at 24 h, 1.5 µM is 50.5 ± 7.23%. Moreover, in the series on U-87 MG [4], the Early apoptotic cells is listed as 10.18 ± 4.45%, the Late apoptotic cells amounted to 37.40 ± 6.20% and the Necrotic cells is 1.95 ± 1.42%.
